Measured values: patent US11963961B2, “Combination therapy comprising an ACC inhibitor” (Gilead Sciences, Inc., priority 2017, dated 2024)

Assays:
[1] = test system: fast food diet (FFD) male C57B1/6 mouse; experiment: 14-day pharmacology study of Compound 2 and fenofibrate in chow, fast food diet model of fatty liver; format: in vivo; conditions: Compound 2 10 mg/kg QD PO, two weeks of dosing
Experimental: Once Daily Compound 2 and Fenofibrate Administered in Chow: 14-Day Pharmacology Study Using the Fast Food Diet Model of Fatty Liver in the Male C57B1/6 Mouse
Purpose: The purpose of this study was to assess the effect of Compound 2 on plasma and liver TG and molecular biology of liver after 10 to 14 days of Compound 2 administered orally (10 mg/kg QD), or fenofibrate (0.1% administration in chow), or the combination in a mice fed a diet high in fat, cholesterol, and fructose (the fast-food diet, FFD). Mice enrolled in this study were fed a fast food diet for approximately 9 months prior to study start. Primary endpoints were plasma triglycerides, liver triglycerides, liver cholesterol, and hepatic gene expression of liver X receptorα (LXRα), and sterol response element binding protein-1c (SREBP1c) target genes by qPCR.

[2] = test system: fast food diet (FFD) male C57BL/6 mouse; experiment: 15-day once daily oral Compound 2 and fenofibrate, fast food diet model of fatty liver; format: in vivo; conditions: 15 days
Experimental: Once Daily Oral Administration of Compound 2 and Fenofibrate: 15-Day Pharmacology Study Using the Fast Food Diet Model of Fatty Liver in the Male C57BL/6 Mouse
(§1) Purpose: The purpose of this study was to assess the effect of Compound 2 on plasma and liver triglycerides (TG) and molecular biology of liver after 15 days of oral administration (“PO”) of Compound 2 (5 mg/kg QD), fenofibrate (25 mg/kg and 50 mg/kg QD), or the combination (Compound 2 (5 mg/kg, QD)+fenofibrate (50 mg/kg, QD)) in mice fed a diet high in fat, cholesterol, and fructose (the fast-food diet, FFD (Research Diet D12079B)). Mice enrolled in this study were fed a FFD for approximately 9 months prior to study start. Primary endpoints were plasma TG, liver TG, liver ketone bodies, plasma liver enzymes, hepatic oxidative stress and hepatic gene expression of liver X receptorα (LXRα) and PPARα targets, and profibrotic markers by qPCR.

[3] = test system: pro-fibrotic genes colla1 and timp1; experiment: Hepatic mRNA expression by qPCR, 15-day FFD mouse study; format: in vivo; conditions: Compound 2 5 mg/kg; fenofibrate 50 mg/kg; QD PO, 15 days
Experimental: as §1

[4] = test system: subjects with steatosis and F1-F3 fibrosis / NASH; conditions: one subject on Compound 1 20 mg given 145 mg fenofibrate after grade 3 hypertriglyceridemia at week 1
Experimental: Ten subjects with steatosis (MRI-PDFF≥10%) and F1-F3 fibrosis (MRE≥2.88 kPa but non-cirrhotic based on FibroText <0.75, historical imaging and liver biopsy) were treated 20 mg Compound 1 for 12 weeks.
Four of the ten subjects were on fish oil or fenofibrate at baseline and continued the concomitant medication for the duration of the study. Throughout the study subjects were monitored for safety (adverse events, laboratory abnormalities), liver biochemistry, serum markers of fibrosis (ELF and its components TIMP-1, hyaluronic acid, PIII-NP) and cell death (CK18 M30 and M65), liver stiffness (MRE) and fat (MRI-PDFF) and the effect on de novo lipogensis was assessed using heavy water labeling.
The four subjects were analyzed in conjunction with eight subjects from the study described in Example 1. These twelve subjects were on fish oil or fibrates for at least six weeks of the study and included those who were on fish oil or fibrates at baseline or who had graded hypertriglyceridemia and were given fish oil or fibrates during the study.

Structure (SMILES): COc1ccccc1[C@H](Cn1c(=O)n(C(C)(C)C(=O)O)c(=O)c2c(C)c(-c3ncco3)sc21)O[C@H]1CC[C@@H](O)CC1 [Compound 2, 2-[1-[(2R)-2-[(4-hydroxycyclohexyl)oxy]-2-(2-methoxyphenyl)ethyl]-5-methyl-6-(1,3-oxazol-2-yl)-2,4-dioxo-1H,2H,3H,4H-thieno[2,3-d]pyrimidin-3-yl]-2-methylpropanoic acid]
- Plasma triglycerides, increase relative to vehicle-treated animals [1]: 15%
- Plasma TG, increase relative to vehicle-treated animals ([2]; Compound 2 5 mg/kg QD PO, 2 h post dose, ad lib fed): 29%

Structure (SMILES): CC(C)OC(=O)C(C)(C)Oc1ccc(C(=O)c2ccc(Cl)cc2)cc1 [fenofibrate, Fenofibrate, reference compound]
- Hepatic expression of pro-fibrotic genes [3]: reduced
- All monitored TG related measurements (total TG, APOB48, VLDL-P, APOC3) [4]: improved to less than baseline
- Effect on the above-mentioned parameters (plasma TG, PPARα and LXRα target genes, ALT/AST, liver TG, βOHB, malondialdehyde) ([2]; fenofibrate alone, both 25 and 50 mg/kg QD PO): modest-to-no effect
